Patent publication US20130225669A1 (priority 2012, published 2013)

Test system: Bacillus atrophaeus spores
Assay: Qualitative antibacterial effects on spore strips in Releasat medium
Type: cell-based
Settings: one week treatment
Description: The antibacterial effects of genipin solutions on Bacillus atrophaeus spores was assessed. Using aseptic technique, B. atrophaeus mini spore strips (N=4 per group) with 1.2×10^6 spores per strip (North American Science Associates, Inc., Northwood, Ohio, USA) were either untreated, or treated with either 1 mL PBS, 0.625% genipin in PBS (1.4×10^13 genipin molecules per spore), 90% ethanol, 10% genipin in 90% ethanol (2.2×10^14 genipin molecules per spore), or 10% formalin for one week. Ten percent genipin was used in 90% ethanol for direct comparison to 10% formalin. Solutions were passed through a 0.2 μm Whatman filter (Fisher Scientific, Pittsburgh, Pa., USA) prior to being used to remove extraneous bacteria.
After treating the spore strips for one week they were transferred to Releasat® rapid-readout color changing vials (SGM Biotech, Bozeman, Mont., USA). Releasat® vials have specially formulated soybean-casein digest medium and a pH indicator designed to change color from orange to yellow in the presence of B. atrophaeus growth within 72 hours or remain orange if the spore strips are sterile. The spore strips treated with 10% genipin in 90% ethanol were removed from their respective medium vials and washed in 10 mL of sterile 90% ethanol for 15 minutes after it was noticed that within 90 minutes of placement into the Releasat® medium that the color changed from orange to brown (genipin-induced color change). These spore strips were placed in new Releasat® vials after washing. Spores were incubated at 37° C. and vials were checked after 24, 48, and 72 hours for color change and assessments of turbidity.

Compound	turbidity of medium (0.625% genipin in PBS)	color of Releasat medium (orange sterile, yellow growth) (0.625% genipin in PBS, within 24 hours)	turbidity of medium (10% genipin in 90% ethanol)	color of Releasat medium (orange sterile, yellow growth) (10% genipin in 90% ethanol, within 24 hours)	color of Releasat medium (orange sterile, yellow growth) (10% formalin, read after 72 hours)
COC(=O)C1=CO[C@@H](O)C2C(CO)=CC[C@H]12 (stereo in doubt) [genipin, methyl (1R,2R,6S)-2-hydroxy-9-(hydroxymethyl)-3-oxabicyclo [4.3.0]nona-4,8-diene-5-carboxylate]	less turbid than the PBS and untreated control at all time points	changed to yellow	less turbid than the 90% ethanol and untreated control after 24 and 48 hours only	changed to yellow	
C=O [formalin, reference compound]					remained orange
